Experimental data: patent US20190240297A1, “TREATMENT OF INFLAMMATORY BOWEL DISEASE” (UNIVERSITÉ LAVAL, priority 2016, published 2019)
Blank lines part the entries; values can stand above or below the compound they belong to.

Key:
[1] = test system: DSS-induced colitis; experiment: DSS-induced acute colitis, disease activity index (DAI) after intrarectal injection; assay type: in vivo, mouse
Protocol: (§1) All mice were treated or not (control mice) with 3% (w/v) DSS (molecular weight: 42 kDa) added to the drinking water for 7 days. Disease activity index (DAI) was evaluated daily by scoring percent of weight loss, intestinal bleeding (no blood, presence of blood), and stool consistency (normal stool, loose stool, or diarrhea) as previously described (Berberat P, 2005). For intrarectal injection mice were anesthetized and stool that may be present in distal colon was removed with pressure by fingertips to the posterior end of the animal. A 5F infant feeding tube catheter was inserted 4 cm (measured from the midway point between the 2 catheter side ports) into the colon. At this point, 100 μL of P2Y6 antagonist (MRS 2578 CAS number 711019-86-2, 10 μM), apyrase (4 Units/mice) or their vehicles DMSO or PBS respectively was administered slowly. Following the injection of the solution, animals were positioned head-down for 90 sec to avoid loss of the injected solution. Mice were euthanized 8 hr after the last intrarectal injection, tissue and plasma were isolated for experimental outcomes.

[2] = test system: DSS-induced colitis; experiment: In vivo intestinal permeability assay (FITC-dextran flux from intestine to plasma) in DSS-treated mice; set-up: species or system mouse
Protocol: as §1, with “For” for “All mice were treated or not (control mice) with 3% (w/v) DSS (molecular weight: 42 kDa) added to the drinking water for 7 days. Disease activity index (DAI) was evaluated daily by scoring percent of weight loss, intestinal bleeding (no blood, presence of blood), and stool consistency (normal stool, loose stool, or diarrhea) as previously described (Berberat P, 2005). For”
Intestinal permeability was assessed with fluorescein-labeled dextran (FITC-dextran) as described previously with some modification (Ashleigh Hansen, 2013). All mice were administrated by oral gavage with FITC-dextran (60 mg/[…] of mouse) 4 h after the intrarectal injection of MRS 2578, apyrase or vehicle (DMSO or PBS). Another 4 hours later, mice were euthanized and whole blood was obtained by cardiac puncture. Plasma was isolated and the movement of FITC-flux from colonic lumen into the plasma was measured by fluorometry at 488 nm. Data are expressed as total quantity of dextran-FITC in 100 μl of plasma.

[3] = test system: IEC monolayers; experiment: In vitro intestinal permeability assay (FITC-dextran) on DSS-treated IEC monolayers; assay type: cell-based, mouse; conditions: WT and Entpd8-/- IEC, DSS 3% 24 hours; 10 μM added 6 hours after DSS for last 18 hours (FIG. 14A)
Description: (§2) Human colon pieces were recuperated and washed several times with D-PBS containing Fetal Bovine Serum (FBS), antibiotics, antifungal and gentamycin until the solution is clear. Epithelial unit containing stem cells (crypts) were isolated from human samples (as prepared above) or from the intestine of 10-12 weeks old mice by dissection and dissociated with collagenase type I (collagenase XI, DTT and dispase for human). Briefly, the longitudinal muscle layer from the colons were excised, washed with ice-cold Mg^2+ and Ca^2+ free Salt Solution (PBS) and then digested with 75 U/mL collagenase type I or collagenase XI. The digestion was stopped with Dulbecco's Modified Eagles Medium (DMEM/F12) containing 10% v/v foetal bovine serum (FBS). L-glutamine, Hepes. […]
(§3) In other experiments, murine IEC were grown on permeable supports, stimulated on the apical chamber with DSS 3% for 6 hours then the P2Y6 antagonist MRS 2578 (10 μM) was added for the following 18 hours. The supernatant from basolateral chamber was collected and KC secretion was evaluated by Elisa.
Intestinal permeability was assessed with fluorescein-labeled dextran (FITC-dextran) as described previously with some modification (Ashleigh Hansen 2013). […] 4 hours later, samples were taken from the bottom chambers and fluorescence intensity in the samples was measured. Data were expressed as total quantity of dextran-FITC in supernatant.

[4] = test system: IEC; experiment: KC secretion by DSS-treated IEC (ELISA of basolateral supernatant); assay type: cell-based, mouse; conditions: WT and Entpd8-/- IEC, DSS 3% 24 hours; 10 μM added 6 hours after DSS for last 18 hours (FIG. 14B)
Description: as §2, with “Hepes. N-2 supplement, B-27 supplement and antibiotics. The digestion mixture was filtered with 70 μm filter and the effluent was centrifuged twice at 50×g for 5 min at 4° C.” for “Hepes.”
as §3, with “Elisa. […]” for “Elisa.”

[5] = target: T1, P2Y6 receptor (Mus musculus, UniProt Q9ERK9); experiment: UDP stimulation of murine differentiated IEC, KC expression by qPCR; assay type: cell-based; conditions: 100 μM for 5 hours (FIG. 13A)
T1 construct: endogenous in cells; host or cells: primary differentiated intestinal epithelial cells from colon crypts of WT and Entpd8-/- mice
Description: as §2, with “Hepes. N-2 supplement, B-27 supplement and antibiotics. The digestion mixture was filtered with 70 μm filter and the effluent was centrifuged twice at 50×g for 5 min at 4° C.” for “Hepes.”
(§4) Murine and human differentiated IEC were grown on plates and stimulated with UDP (100 μM) for 5 hours then the expression of KC (for mouse) and CXCL8 (for human) were evaluated by qPCR.
(§5) Genomic DNA was extracted from the tail of WT and Entpd8^−/− mice using Direct PCR Lysis Reagent to perform PCR using specific primers for NTPDase8 gene and neomycin as mentioned above. […] Primer sequences for cytokine analysed were purchased from Qiagen.

[6] = target: T2, P2Y6 receptor (Homo sapiens, UniProt Q15077); experiment: UDP stimulation of human differentiated IEC, CXCL8 expression by qPCR; assay type: cell-based; conditions: 100 μM for 5 hours, 1 patient (FIG. 13B)
T2 construct: endogenous in cells; host or cells: primary differentiated intestinal epithelial cells from human colon crypts (1 patient)
Description: as §2, with “Hepes. N-2 supplement, B-27 supplement and antibiotics. The digestion mixture was filtered with 70 μm filter and the effluent was centrifuged twice at 50×g for 5 min at 4° C.” for “Hepes.”
as §4, §5

T2 sequence (Q15077 whole entry): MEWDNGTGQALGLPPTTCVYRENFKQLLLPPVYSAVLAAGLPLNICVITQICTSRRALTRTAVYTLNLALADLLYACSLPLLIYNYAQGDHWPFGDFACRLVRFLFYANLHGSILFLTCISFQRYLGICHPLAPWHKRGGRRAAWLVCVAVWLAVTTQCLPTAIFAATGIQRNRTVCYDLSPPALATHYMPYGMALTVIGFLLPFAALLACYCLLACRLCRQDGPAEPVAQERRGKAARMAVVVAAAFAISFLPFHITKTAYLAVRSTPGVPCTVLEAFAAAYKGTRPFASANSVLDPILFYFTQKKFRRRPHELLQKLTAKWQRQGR
T1 sequence (Q9ERK9 whole entry): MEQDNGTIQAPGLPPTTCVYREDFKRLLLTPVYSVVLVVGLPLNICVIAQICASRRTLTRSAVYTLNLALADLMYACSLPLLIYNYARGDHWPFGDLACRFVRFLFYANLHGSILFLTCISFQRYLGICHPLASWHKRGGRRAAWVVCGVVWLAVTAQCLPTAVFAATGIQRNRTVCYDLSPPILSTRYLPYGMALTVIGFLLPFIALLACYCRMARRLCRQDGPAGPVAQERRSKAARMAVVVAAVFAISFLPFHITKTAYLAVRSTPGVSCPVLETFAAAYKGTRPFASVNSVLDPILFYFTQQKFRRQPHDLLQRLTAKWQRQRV

Compound: apyrase
Protection from colitis as determined by DAI ([1]; WT mice, DSS, 4 U/mice intrarectally daily day 2 to day 7, vs PBS (FIG. 11A)): fully protected | Disease activity index (DAI) / inflammation ([1]; WT mice, DSS, 4 U/mice intrarectally in late phase, day 5 to day 7, vs PBS (FIG. 11C)): reduced inflammation | Protection from colitis as determined by permeability measurements ([2]; WT mice, 4 U/mice intrarectally daily day 2 to day 7, vs PBS (FIG. 11B)): fully protected

Compound: S=C=Nc1cccc(NC(=S)NCCCCNC(=S)Nc2cccc(N=C=S)c2)c1 [MRS 2578]
Disease activity index (DAI) / inflammation ([1]; Entpd8-/- mice, 3% DSS 7 days, 10 μM intrarectally daily day 2 to day 7, vs DSS alone (FIG. 10A)): reduced inflammation and the DAI | Disease activity index (DAI) / inflammation ([1]; WT mice, 3% DSS 7 days, 10 μM intrarectally daily day 2 to day 7, vs DSS alone (FIG. 10C)): reduced inflammation and the DAI | Intestinal permeability, FITC-dextran flux from intestine to plasma ([2]; Entpd8-/- and WT mice, day 7, 10 μM intrarectally day 2 to day 7 (FIG. 10B, D)): significantly ameliorated the permeability | Epithelial permeability (FITC-dextran in basolateral chamber) [3]: decreasing epithelial permeability | KC (chemokine) secretion [4]: decreasing epithelial permeability and chemokines secretion

KC expression (mRNA) [5]: significant increase | CXCL8 expression (mRNA) [6]: significant increase
Compound: O=c1ccn([C@@H]2O[C@H](COP(=O)(O)OP(=O)(O)O)[C@@H](O)[C@H]2O)c(=O)[nH]1 [UDP]
